Common to all, as to assay: relative viability (nuclei count vs DMSO), 5 days (fraction); higher = more cells survive
Compound in experiment [1]: C[C@]1(c2nc3c(C(N)=O)cccc3[nH]2)CCCN1 [Veliparib] + Nc1nc2[nH]cc(CCc3ccc(C(=O)N[C@@H](CCC(=O)O)C(=O)O)cc3)c2c(=O)[nH]1 [Pemetrexed] (partner 0.2 µM)
The gist of the method:
(§1)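 Relative viability is defined as nuclei in treated wells over nuclei in vehicle wells. Duplicate plates were run and medians reported. Lung cancer cell lines in 1536-well plates were dosed by pin tool one day after seeding, with one drug or with a fixed anchor-drug dose plus five library-drug doses (not always all listed) in √10 steps, and nuclei were counted after 5 days.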

Compound in experiment [2]: C[C@]1(c2nc3c(C(N)=O)cccc3[nH]2)CCCN1 [Veliparib] + CS(=O)(=O)N1CCN(Cc2cc3nc(-c4cccc5[nH]ncc45)nc(N4CCOCC4)c3s2)CC1 [Pictilisib] (partner 1 µM)
The gist of the method:
as §1

Compound in experiment [3]: COC1=CC=C(C=C1)CN2C=CC3=C2C=C(C=C3)C(=O)NO + Cc1nc(NC(=O)N2CCC[C@H]2C(N)=O)sc1-c1ccnc(C(C)(C)C(F)(F)F)c1 [Alpelisib] (partner 2 µM)
The gist of the method:
as §1

Compound in experiment [4]: COC1=CC=C(C=C1)CN2C=CC3=C2C=C(C=C3)C(=O)NO + CC(=O)c1c(C)c2cnc(Nc3ccc(N4CCNCC4)cn3)nc2n(C2CCCC2)c1=O [Palbociclib] (partner 0.5 µM)
The gist of the method: as §1

For the cell line LU99A, the relative viability worked out at 0.207 in experiment [1] (first compound 0.02 µM); 0.184 in experiment [1] (first compound 0.06325 µM); 0.205 in experiment [1] (first compound 0.2 µM); 0.196 in experiment [1] (first compound 0.6325 µM); 0.181 in experiment [1] (first compound 2 µM); 0.349 in experiment [2] (first compound 0.02 µM). Also, the relative viability is 0.279 in experiment [2] (first compound 0.06325 µM); 0.296 in experiment [2] (first compound 0.2 µM); 0.278 in experiment [2] (first compound 0.6325 µM); 0.323 in experiment [2] (first compound 2 µM); 0.552 in experiment [3] (first compound 0.253 µM); 0.624 in experiment [3] (first compound 0.8 µM). Besides, the relative viability is 0.605 in experiment [3] (first compound 2.53 µM); 0.479 in experiment [3] (first compound 8 µM); 0.406 in experiment [4] (first compound 0.253 µM); 0.424 in experiment [4] (first compound 0.8 µM); 0.416 in experiment [4] (first compound 2.53 µM); 0.352 in experiment [4] (first compound 8 µM).
In the case of NCI-H520, the relative viability in experiment [1] (first compound 0.02 µM) worked out at 0.877; in experiment [1] (first compound 0.06325 µM), 0.657; in experiment [1] (first compound 0.2 µM), 0.904; in experiment [1] (first compound 0.6325 µM), 0.637; in experiment [1] (first compound 2 µM), 0.674; in experiment [2] (first compound 0.02 µM), 0.392. Besides, the relative viability stood at 0.267 in experiment [2] (first compound 0.06325 µM); 0.316 in experiment [2] (first compound 0.2 µM); 0.283 in experiment [2] (first compound 0.6325 µM); 0.227 in experiment [2] (first compound 2 µM); 0.43 in experiment [3] (first compound 0.08 µM); 1.16 in experiment [3] (first compound 0.253 µM). Further, the relative viability in experiment [3] (first compound 0.8 µM) was 0.887; in experiment [3] (first compound 2.53 µM), 0.904; in experiment [3] (first compound 8 µM) it was 0.853; in experiment [4] (first compound 0.08 µM), 0.197; in experiment [4] (first compound 0.253 µM) it was 0.194; in experiment [4] (first compound 0.8 µM), 0.208. The relative viability in experiment [4] (first compound 2.53 µM) worked out at 0.214; in experiment [4] (first compound 8 µM), 0.195.
On to COR-L23, for which the relative viability in experiment [1] (first compound 0.02 µM) was 0.206; in experiment [1] (first compound 0.06325 µM), 0.202; in experiment [1] (first compound 0.2 µM), 0.201; in experiment [1] (first compound 0.6325 µM), 0.181; in experiment [1] (first compound 2 µM) it was 0.202; in experiment [2] (first compound 0.02 µM), 0.722. The relative viability in experiment [2] (first compound 0.06325 µM) was 0.645; in experiment [2] (first compound 0.2 µM), 0.697; in experiment [2] (first compound 0.6325 µM), 0.536; in experiment [2] (first compound 2 µM), 0.774; in experiment [3] (first compound 0.08 µM), 0.493; in experiment [3] (first compound 0.253 µM) it was 0.897. Further, the relative viability in experiment [3] (first compound 0.8 µM) was determined as 0.793; in experiment [3] (first compound 2.53 µM) it was 0.892; in experiment [3] (first compound 8 µM), 0.551; in experiment [4] (first compound 0.08 µM), 0.23; in experiment [4] (first compound 0.253 µM) it was 0.323; in experiment [4] (first compound 0.8 µM) it was 0.316. The figures for the relative viability in experiment [4] (first compound 2.53 µM) and in experiment [4] (first compound 8 µM) were 0.29 and 0.26, respectively.
Consider NCI-H1437, for which the relative viability was found to be 0.31 in experiment [1] (first compound 0.02 µM); 0.276 in experiment [1] (first compound 0.06325 µM); 0.325 in experiment [1] (first compound 0.2 µM); 0.356 in experiment [1] (first compound 0.6325 µM); 0.34 in experiment [1] (first compound 2 µM); 0.419 in experiment [2] (first compound 0.02 µM). In addition, the relative viability in experiment [2] (first compound 0.06325 µM) was determined as 0.512; in experiment [2] (first compound 0.2 µM), 0.552; in experiment [2] (first compound 0.6325 µM), 0.378; in experiment [2] (first compound 2 µM), 0.362; in experiment [3] (first compound 0.08 µM) it was 0.827; in experiment [3] (first compound 0.253 µM), 1.04. The relative viability in experiment [3] (first compound 0.8 µM) worked out at 0.958; in experiment [3] (first compound 2.53 µM), 0.953; in experiment [3] (first compound 8 µM), 1.01; in experiment [4] (first compound 0.08 µM), 0.283; in experiment [4] (first compound 0.253 µM), 0.295; in experiment [4] (first compound 0.8 µM), 0.344. The relative viability in experiment [4] (first compound 2.53 µM) is 0.366; in experiment [4] (first compound 8 µM), 0.326.
Turning to HARA, the relative viability is 0.254 in experiment [1] (first compound 0.02 µM); 0.219 in experiment [1] (first compound 0.2 µM); 0.265 in experiment [1] (first compound 0.6325 µM); 0.261 in experiment [1] (first compound 2 µM); 0.498 in experiment [2] (first compound 0.02 µM); 0.49 in experiment [2] (first compound 0.06325 µM). The relative viability was 0.244 in experiment [2] (first compound 0.2 µM); 0.398 in experiment [2] (first compound 0.6325 µM); 0.415 in experiment [2] (first compound 2 µM); 0.149 in experiment [3] (first compound 0.08 µM); 0.851 in experiment [3] (first compound 0.253 µM); 0.765 in experiment [3] (first compound 0.8 µM). In addition, the relative viability in experiment [3] (first compound 2.53 µM) is 0.917; in experiment [3] (first compound 8 µM), 0.693; in experiment [4] (first compound 0.08 µM), 0.153; in experiment [4] (first compound 0.253 µM), 0.218; in experiment [4] (first compound 0.8 µM) it was 0.243; in experiment [4] (first compound 2.53 µM) it was 0.3. Besides, the relative viability in experiment [4] (first compound 8 µM) amounted to 0.238.
Regarding NCI-H1666, the relative viability in experiment [1] (first compound 0.02 µM) came to 0.866; in experiment [1] (first compound 0.06325 µM), 0.782; in experiment [1] (first compound 0.2 µM) it was 0.879; in experiment [1] (first compound 0.6325 µM) it was 0.866; in experiment [1] (first compound 2 µM), 0.898; in experiment [2] (first compound 0.02 µM), 0.357. Moreover, the relative viability was found to be 0.334 in experiment [2] (first compound 0.06325 µM); 0.625 in experiment [2] (first compound 0.2 µM); 0.427 in experiment [2] (first compound 0.6325 µM); 0.49 in experiment [2] (first compound 2 µM); 1.07 in experiment [3] (first compound 0.08 µM); 1.04 in experiment [3] (first compound 0.253 µM). Further, the relative viability was 1.01 in experiment [3] (first compound 0.8 µM); 1.04 in experiment [3] (first compound 2.53 µM); 1.36 in experiment [3] (first compound 8 µM); 0.642 in experiment [4] (first compound 0.08 µM); 0.661 in experiment [4] (first compound 0.253 µM); 0.694 in experiment [4] (first compound 0.8 µM). The relative viability was found to be 0.679 in experiment [4] (first compound 2.53 µM) and 0.625 in experiment [4] (first compound 8 µM).
In the case of CAL-12T, the relative viability in experiment [1] (first compound 0.02 µM) came to 1.23; in experiment [1] (first compound 0.06325 µM) it was 1.06; in experiment [1] (first compound 0.2 µM), 1.32; in experiment [1] (first compound 0.6325 µM) it was 1.09; in experiment [1] (first compound 2 µM), 1.3; in experiment [2] (first compound 0.02 µM), 0.439. Also, the relative viability was determined as 0.395 in experiment [2] (first compound 0.06325 µM); 0.522 in experiment [2] (first compound 0.2 µM); 0.386 in experiment [2] (first compound 0.6325 µM); 0.351 in experiment [2] (first compound 2 µM); 1.22 in experiment [3] (first compound 0.08 µM); 1.31 in experiment [3] (first compound 0.253 µM). The relative viability came out at 1.19 in experiment [3] (first compound 0.8 µM); 1.19 in experiment [3] (first compound 2.53 µM); 1.24 in experiment [3] (first compound 8 µM); 0.424 in experiment [4] (first compound 0.08 µM); 0.517 in experiment [4] (first compound 0.253 µM); 0.585 in experiment [4] (first compound 0.8 µM). Besides, the relative viability in experiment [4] (first compound 2.53 µM) stood at 0.325; in experiment [4] (first compound 8 µM) it was 0.566.
